Measurements published in patent US20250091994A1, “RAS/RAF BINDING INHIBITOR COMPOUND” (NATIONAL UNIVERSITY CORPORATION KOBE UNIVERSITY, priority 2021, published 2025).

Experiments:
[1] = test system: acute lymphoblastic leukemia cells MOLT4 (N-RasG12C); assay: Cell growth inhibition, suspension cells MOLT4; format: cell-based; settings: Homo sapiens, MOLT-4, 72 hours; for inhibition at 3.2 µM: read-out: MOLT-4 (NRasG12C) % inhibition at 3.2 μM (***); for inhibition at 10 µM: read-out: MOLT-4 (NRasG12C) % inhibition at 10 μM (**)
Procedure: (§1) The cell growth inhibitory activity of the compound of the present invention on human culture cells having active-type mutation in Ras was evaluated by the below-mentioned method using suspension cancer cells {acute lymphoblastic leukemia cells CCRF-CEM (K-RasG12D), promyelocytic leukemia cells HL60 (N-RasQ61L), acute lymphoblastic leukemia cells MOLT4 (N-RasG12C), and small cell lung cancer cells SHP77 (K-RasG12V)} and adherent cancer cells {large bowel cancer cells SW480 (K-RasG12V) and large bowel cancer cell SW620 (K-RasG12V)}.
(§2) (Case of suspension cells) The cells suspended in a medium containing 0.5% (v/v) fetal bovine serum (FBS) and each compound solution (final DMSO concentration: 1%) were seeded on a 96-well plate (2 to 4×10^4 cells/well), and the resulting mixture was then cultured at 37° C. in the presence of 5% CO2 for 72 hours.
(§3) Thereafter, the number of viable cells was measured using Cell Counting Reagent (Nacalai Tesque) in accordance with the manufacturer's instructions. Inhibition by the test compound was determined according to the following equation: […]

[2] = test system: acute lymphoblastic leukemia cells CCRF-CEM (K-RasG12D); assay: Cell growth inhibition, suspension cells CCRF-CEM; format: cell-based; settings: Homo sapiens, 72 hours; for inhibition at 1 µM: read-out: CCRF-CEM (KRasG12D) % inhibition at 1 μM; for inhibition at 3.2 µM: read-out: CCRF-CEM (KRasG12D) % inhibition at 3.2 μM (***)
Procedure: as §1, §2, §3

[3] = test system: promyelocytic leukemia cells HL60 (N-RasQ61L); assay: Cell growth inhibition, suspension cells HL60; format: cell-based; settings: Homo sapiens, HL-60, 72 hours; for inhibition at 1 µM: read-out: HL-60 (NRasQ61L) % inhibition at 1 μM; for inhibition at 3.2 µM: read-out: HL-60 (NRasQ61L) % inhibition at 3.2 μM (****); for inhibition at 10 µM: read-out: HL-60 (NRasQ61L) % inhibition at 10 μM (***)
Outline: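 Suspension cells, 2 to 4×10^4 per well, cultured with compound in medium with 0.5% FBS (1% DMSO final) for 72 h at 37° C, 5% CO2. Viable cells counted with Cell Counting Reagent; inhibition calculated relative to controls.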

[4] = target: GTPγS-bound human HRasG12V / human c-Raf-1 Ras binding domain (RBD) (Homo sapiens (Human), UniProt P01112, G12V); assay: Ras-Raf binding inhibition ELISA; settings: for IC50: anti-HRas antibody C-20, read-out: ELISA IC50 (μM): 1st Ab_C-20
GTPγS-bound human HRasG12V / human c-Raf-1 Ras binding domain (RBD), sequence (P01112 whole entry G12V, the tested form may be a part): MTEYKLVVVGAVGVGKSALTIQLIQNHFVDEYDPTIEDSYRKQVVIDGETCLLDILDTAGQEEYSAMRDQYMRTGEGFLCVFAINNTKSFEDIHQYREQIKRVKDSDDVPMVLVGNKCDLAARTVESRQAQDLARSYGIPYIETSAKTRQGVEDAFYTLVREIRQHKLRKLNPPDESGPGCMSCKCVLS
Outline: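 GST-c-Raf-1 RBD (aa 50-131) immobilized on glutathione plates, then GTPγS-loaded full-length HRasG12V added with compound (final 10% DMSO), 1 h at 30 °C, pH 7.4 Tris buffer. Bound Ras detected by anti-HRas antibody (C-20 or 259) and HRP secondary, TMB read at OD450; IC50 from inhibition.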

[5] = test system: large bowel cancer cell SW620 (K-RasG12V); assay: Cell growth inhibition, adherent cells SW620; format: cell-based; settings: Homo sapiens, SW-620, 72 hours; for inhibition at 3.2 µM: read-out: SW620 (KRasG12V) % inhibition at 3.2 μM (***)
Outline: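 Adherent cells, 1 to 2×10^4 per well, grown overnight in 10% FBS, then exposed to compound in low-serum medium […] for 72 h at 37° C. Viable cells counted with Cell Counting Reagent; inhibition calculated relative to controls.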

[6] = test system: phosphorylated MEK (pMEK) in HL60 cells; assay: Ras-Raf signaling inhibition at culture cell level, pMEK; format: cell-based; settings: Homo sapiens, HL-60; HL60 (N-RasQ61L), 1 μM test compound, 3 hours
Procedure: (§4) The Ras-Raf signaling inhibitory activity of the compound of the present invention at a culture cell level was evaluated by the following method.
(§5) The HL60 cells described in Test Example 2 suspended in a medium containing 0.5% (v/v) FBS with each compound solution (final DMSO concentration: 1%), were seeded on a 12-well plate (2 to 4×10^5 cells/well), and the resulting mixture was then cultured at 37° C. in the presence of 5% CO2 for 3 hours.
(§6) After completion of the cell culture, proteins were extracted from the cells, using RIPA Buffer (Nacalai Tesque) containing a mixture of protease inhibitors and phosphatase inhibitors. An equivalent amount of protein was separated by standard SDS-PAGE and was then transferred onto a PVDF membrane. In order to detect the activation (phosphorylation) of MEK and ERK, downstream molecules of the Ras-Raf signaling pathway, the membrane was probed with 1000-fold diluted primary antibodies {phosphorylated MEK (pMEK: #9121), phosphorylated ERK (pERK: #9101), total MEK (tMEK: #9122), and total ERK (tERK: 9102); all from Cell signaling}, and then with a 1000-fold diluted horseradish peroxidase-labeled secondary antibody against rabbit immunoglobulin G. The immunoreactive signals were colored with EzWestLumi One (ATTO), and were then detected by Fusion FX (Vilber). Signal intensity was quantified by pixel counting. Inhibition by the test compound was determined according to the following equation: […]

[7] = test system: phosphorylated ERK (pERK) in HL60 cells; assay: Ras-Raf signaling inhibition at culture cell level, pERK; format: cell-based; settings: Homo sapiens, HL-60; HL60 (N-RasQ61L), 1 μM test compound, 3 hours
Procedure: as §4, §5, §6

[8] = test system: large bowel cancer cells SW480 (K-RasG12V); assay: Cell growth inhibition, adherent cells SW480; format: cell-based; settings: Homo sapiens, 72 hours, read-out: SW480 (KRasG12V) % inhibition at 10 μM
Procedure: as §1
(Case of adherent cells) The cells suspended in a medium containing 10% FBS (1 to 2×10^4 cells/well) were seeded on a 96-well plate, and were then cultured at 37° C. in the presence of […]. Thereafter, the medium was exchanged with a medium containing […], to which each compound solution (final DMSO concentration: […]) had been added, and the cells were then cultured at 37° C. in the presence of […] for 72 hours.
as §3

[9] = test system: small cell lung cancer cells SHP77 (K-RasG12V); assay: Cell growth inhibition, suspension cells SHP77; format: cell-based; settings: Homo sapiens, 3.3 μM (*), 72 hours, read-out: SHP77 (KRasG12V) % inhibition at 3.3 μM (*)
Procedure: as §1, §2, §3

SMILES	IC50 [4]	inhibition at 1 µM [2]	inhibition at 3.2 µM [1]	inhibition at 3.2 µM [2]	inhibition at 3.2 µM [3]	inhibition at 3.2 µM [5]	inhibition at 1 µM [6]	inhibition at 1 µM [7]	further results
COc1cc(/C=C2/C(=O)c3ccccc3N2C(C)=O)ccc1OS(C)(=O)=O [Example 21, 4-((1-acetyl-3-oxoindolin-2-ylidene)methyl)-2-methoxyphenyl methanesulfonate]		97%							inhibition at 3.3 µM ([1]; 3.3 μM (*), read-out: MOLT-4 (NRasG12C) % inhibition at 3.3 μM (*)): 100%; inhibition at 1 µM [3]: 43%
COCCOc1ccc(/C=C2/C(=O)c3ccccc3N2C(C)=O)cc1OC [Example 11, 1-acetyl-2-(3-methoxy-4-(2-methoxyethoxy)-benzylidene)-indolin-3-one]		55%							inhibition at 10 µM [4]: 54%; inhibition at 10 µM [1]: 100%
CC(=O)N1/C(=C/c2nc3cc(C(=O)N4CCOCC4)ccc3s2)C(=O)c2ccccc21 [Example 48, (E)-1-acetyl-2-((5-(morpholine-4-carbonyl)benzo [d]thiazol-2-yl)-methylene)indolin-3-one]		69%					81%	96%	inhibition at 10 µM [3]: 100%
CC(=O)N1CCc2cc(-c3cc(/C=C4/C(=O)c5ccccc5N4C(C)=O)nc4ccc(CNC5CCOCC5)cc34)ccc2C1 [Example 209, (Z)-1-acetyl-2-((4-(2-acetyl-1,2,3,4-tetrahydro-isoquinolin-6-yl)-6-(((tetrahydro-2H-pyran-4-yl)-amino)methyl)-quinolin-2-yl)-methylene)indolin-3-one]			96.7%	97.8%	96.7%	94.4%			inhibition at 1 µM [4]: 71.2%
CC(=O)N1/C(=C/c2ncc(C(=O)N3CCOCC3)s2)C(=O)c2ccccc21 [Example 68, (E)-1-acetyl-2-((5-(morpholine-4-carbonyl)thiazol-2-yl)methylene)-indolin-3-one]							68%	93%	inhibition at 10 µM [8]: 52%; inhibition at 3.3 µM ([2]; 3.3 μM (*), read-out: CCRF-CEM (KRasG12D) % inhibition at 3.3 μM(*)): 80%; inhibition at 1 µM [3]: 37%; inhibition at 3.3 µM [9]: 67%
CC(=O)N1/C(=C/c2nc3ccc(C(=O)N4CCOCC4)cc3s2)C(=O)c2ccccc21 [Example 58, (E)-1-acetyl-2-((6-(morpholine-4-carbonyl)benzo [d]thiazol-2-yl)-methylene)indolin-3-one]		45%					72%	100%	inhibition at 10 µM [3]: 99%
CCCCOc1cc(/C=C2/C(=O)c3ccccc3N2C(C)=O)nc2ccc(C(=O)N3CCOCC3)cc12 [Example 84, (Z)-1-acetyl-2-((4-butoxy-6-(morpholine-4-carbonyl)quinolin-2-yl)methylene)-indolin-3-one]							58%	63%	inhibition at 1 µM [3]: 96%; inhibition at 1 µM ([5]; 1 μM, read-out: SW620 (KRasG12V) % inhibition at 1 μM): 90%
CC(=O)N1/C(=C\c2cc(-c3cccc(-c4cnn(C)c4)c3)c3cc(CNC4CCOCC4)ccc3n2)C(=O)c2ccccc21 [Example 210, (Z)-1-acetyl-2-((4-(3-(1-methyl-1H-pyrazol-4-yl)-phenyl)-6-(((tetra-hydro-2H-pyran-4-yl)amino)meth-yl)quinolin-2-yl)-methylene)indolin-3-one]	0.6 µM		96.2%	97.5%	97.3%	78%			inhibition at 1 µM [4]: 66.9%

Now from value to compound, other results behind:

IC50 [4]	SMILES	inhibition at 1 µM [2]	inhibition at 3.2 µM [1]	inhibition at 3.2 µM [2]	inhibition at 3.2 µM [3]	inhibition at 3.2 µM [5]	inhibition at 1 µM [6]	inhibition at 1 µM [7]	further results
2.4 µM	CC(=O)N1/C(=C\c2cc(CN3CCOCC3)c3ccccc3n2)C(=O)c2ccccc21 [Example 181, (Z)-1-acetyl-2-((4-(morpholinometh-yl)quinolin-2-yl)-methylene)indolin-3-one]		96.3%	98.2%	96.7%	74.3%			
5.8 µM	CC(=O)N1C(=Cc2cc(F)c(OCC(=O)N3CCOCC3)c(F)c2)C(=O)c2ccccc21 (racemic) [Example 19, 1-acetyl-2-(3,5-difluoro-4-(2-morpholino-2-oxoethoxy)-benzylidene)-indolin-3-one]	83%							inhibition at 10 µM [1]: 100%
7.6 µM	CC(=O)N1C(=Cc2ccc(OCC(=O)N3CCOCC3)c(F)c2)C(=O)c2ccccc21 (racemic) [Example 16, 1-acetyl-2-(3-fluoro-4-(2-morpholino-2-oxoethoxy)-benzylidene)-indolin-3-one]	56%							inhibition at 10 µM [1]: 100%
1.3 µM	CC(=O)N1/C(=C\c2cc(CNC3CCOCC3)c3ccccc3n2)C(=O)c2ccccc21 [Example 208, (Z)-1-acetyl-2-((4-(((tetrahydro-2H-pyran-4-yl)-amino)methyl)-quinolin-2-yl)-methylene)indolin-3-one]		96.2%	97%	95.1%	81.1%			inhibition at 1 µM [4]: 46.7%
